Counter-ions that a name gives are not always drawn.
Experiments:
[1] = test system: carrigeenan-induced swelling; assay: Anti-edema test (carrageenin-induced hind paw edema); type: in vivo, male Wistar rats (Taiwan strain); conditions: one hour before carrigeenan, measured three hours after injection, rat
Method: (§1) The first test is for adjuvant arthritis inhibition and the second, an anti-edema test, involves the diminution of experimental edema induced in the hind paw of a rat by the injection of carrageenin.
Anti-edema effect was determined according to the test procedure recited by Winter, C.A., Risley, E. A., and Nuss, G. W., Proc. Exper. Biol. Med. 111:544-547, 1962. For this test, three male Wistar rats (Taiwan strain) weighing 100-120 g each are orally dosed with test compound dissolved or suspended in 3 ml of water. One hour later, the plantar surface of the right hind paw was injected with 0.1 ml of a 1 percent suspension of carrigeenan in saline and the left paw was similarly injected with saline only. Three hours after the injection the volume of both hind paw was measured by fluid displacement and the percent decrease in carrigeenan-induced swelling (volume of carrigeenan injected foot minus saline injected foot) was determined by comparison with untreated (no test compound) animals. Greater than 30 percent inhibition is considered evidence of an anti-edema effect.

adjuvant arthritis = assay: Adjuvant arthritis inhibition (hind-foot volume, primary and secondary lesions); type: in vivo, Wistar male rats (Taiwan strain); conditions: five daily doses, rat; for Percent Reduction in Edema of the Primary Lesion: injected right hind paw measured four hours after fifth dose; for Percent Reduction in Edema of the Secondary Lesion: uninjected foot measured fourteen days after adjuvant inoculation
Source text: as §1
This test was run according to the test procedure recited by VanArman, G. C., Nuss, G. W. and Risley, E. A., J. Pharmacol..Exper. Terap., 187:400-413, 1973. The following is a description of the test: • The hind-foot volumes of five Wistar male. rats (Taiwan strain) weighing 130-160 g each were measured by fluid displacement immediately prior to intraplantar administration (right hind paw) of 0.1 ml of an adjuvant suspension containing 5 milligrams (mg) Mycobacterium butyricum bacilli suspended in heavy mineral oil. Test compounds were orally administered to the animals for five days beginning the day before injection of the adjuvant. Four hours after the fifth daily drug dose the volume of the right hind paw (primary lesion) was measured for determination of any acute anti-inflammatory effect. Fourteen days after adjuvant inoculation the volume of the uninjected foot was measured (secondary lesion) for determination of prolonged anti-inflammatory effect or immunosuppressant effect. The percent reduction in foot volume was calculated for each hind paw in relation to corresponding control values determined simultaneously. A greater than 30 percent reduction in volume of either paw is considered a significant effect. Reduction of the primary lesion without effect on the secondary lesion denotes acute anti-inflammatory activity of short to moderate duration.

Systolic blood pressure = assay: Anti-hypertensive screening (systolic blood pressure by tail cuff); type: in vivo, normotensive Wistar rats (Taiwan strain); conditions: 100 mg/kg oral, rat
Method: This test was run according to the test procedure recited by Nagoaka, A., Kikuchi, K. and Aramaki, Y., Jap. J. Pharmacol., 19:401-408, 1969. For this test, two normotensive Wistar rats (Taiwan strain) were placed in perspex holders and then placed in a heated chamber at 40°C for 4-6 minutes before treatment. They were maintained there throughout each experiment. Systolic blood pressure was recorded by indirect means employing a tail cuff and pneumatic sensor device applied to the base of the animals' tails. The device was coupled to a programmed Narco-Biosystems sphygmomano meter (Model PE-300), an instrument for measuring blood pressure, and Sanei polygraph. After recording suitably steady blood pressure readings, test drugs were orally administered and blood pressure checked again 2, 4 and 6 hours after drug administration. A mean decrease of more than 10 percent from the pretreatment value at any two consecutive measurement intervals is considered evidence of hypotensive effect.

SMILES | Percent Mean Decrease in Systolic Blood Pressure (Systolic blood pressure; 2 hours after administration) | Percent Mean Decrease in Systolic Blood Pressure (Systolic blood pressure; 4 hours after administration) | Percent Mean Decrease in Systolic Blood Pressure (Systolic blood pressure; 6 hours after administration) | Reduction of Induced Edema ([1]; 100 mg/kg oral) | Percent Reduction in Edema of the Primary Lesion (adjuvant arthritis; 100 mg/kg oral) | Percent Reduction in Edema of the Secondary Lesion (adjuvant arthritis; 100 mg/kg oral) | other results
COc1ccc(NC(=S)N=CN(C)C)cc1 [Compound 1, 1-(p-methoxyphenylthiocarbamyl) 3,3-dimethyl formamidine hydrochloride] |  |  |  |  |  |  | Reduction of Induced Edema ([1]; 5 mg/kg oral): 35%; Percent Reduction in Edema of the Primary Lesion (adjuvant arthritis; 5 mg/kg oral): 39%; Percent Reduction in Edema of the Secondary Lesion (adjuvant arthritis; 5 mg/kg oral): 35%
C[C@](N)(Cc1ccc(O)c(O)c1)C(=O)O [α-methyl 3,4-dihydroxy-phenylalanine, reference compound] | 11% | 21% | 19% |  |  |  | 
CCc1cccc(CC)c1NC(=S)N=CN(C)C [Compound 3] |  |  |  | 33% | 39% | 31% | 
Cc1ccc(NC(=S)N=CN(C)C)c(C)c1 [Compound 4] | 4% | 17% | 15% |  | 0% | 0% | 
CN(C)C=NC(=S)Nc1ccc(Cl)cc1 [Compound 2] |  |  |  |  |  |  | Reduction of Induced Edema ([1]; 25 mg/kg oral): 32%
CCCCC1C(=O)N(c2ccccc2)N(c2ccccc2)C1=O [phenylbutazone, reference compound] |  |  |  | 41% |  |  | 

Reference: patent EP0075047A1, “1-(Substituted phenylthiocarbamyl) 3,3-disubstituted formamidines and their production and pharmaceutical compositions containing them” (STAUFFER CHEMICAL COMPANY, priority 1981, dated 1983)
